Results: ChEMBL document CHEMBL4732124 (Eur J Med Chem, 2021)

Legend:
[1] = tested on: WI-38; experiment: Cytotoxicity against human WI-38 cells assessed as cell viability after 48 hrs by MTT assay; format: cell-based; conditions: WI-38, 48 h
[2] = tested on: Huh-7; experiment: Antiproliferative activity against human Huh-7 cells assessed as reduction in cell viability after 48 hrs by MTT assay; format: functional, cell-based; conditions: Huh-7, 48 h
[3] = tested on: Hep 3B2; experiment: Antiproliferative activity against human Hep3B cells assessed as reduction in cell viability after 48 hrs by MTT assay; format: functional, cell-based
[4] = tested on: HepG2; experiment: Antiproliferative activity against human HepG2 cells assessed as reduction in cell viability after 48 hrs by MTT assay; format: functional, cell-based; conditions: HepG2, 48 h
[5] = tested on: HepG2; experiment: Antiproliferative activity against human HepG2 cells assessed as cell viability at 10 uM after 48 hrs by MTT assay relative to control; format: functional; conditions: read-out: Activity
[6] = target: T1, Platelet-derived growth factor receptor alpha (Homo sapiens, UniProt P16234); experiment: Inhibition of PDGFRalpha (unknown origin) in presence of [gamma33]-ATP at 10 uM by liquid scintillation counting analysis relative to control
[7] = target: Dual specificity mitogen-activated protein kinase kinase 1 (Homo sapiens) (UniProt Q02750); experiment: Inhibition of MEK-1 (unknown origin) in presence of [gamma33]-ATP at 10 uM by liquid scintillation counting analysis relative to control
[8] = target: Platelet-derived growth factor receptor beta (Homo sapiens) (UniProt P09619); experiment: Inhibition of PDGFRbeta (unknown origin) in presence of [gamma33]-ATP at 10 uM by liquid scintillation counting analysis relative to control
[9] = target: T2, Serine/threonine-protein kinase A-Raf (Homo sapiens) (UniProt P10398); experiment: Inhibition of A-Raf (unknown origin) in presence of [gamma33]-ATP at 10 uM by liquid scintillation counting analysis relative to control
T2 sequence (whole entry): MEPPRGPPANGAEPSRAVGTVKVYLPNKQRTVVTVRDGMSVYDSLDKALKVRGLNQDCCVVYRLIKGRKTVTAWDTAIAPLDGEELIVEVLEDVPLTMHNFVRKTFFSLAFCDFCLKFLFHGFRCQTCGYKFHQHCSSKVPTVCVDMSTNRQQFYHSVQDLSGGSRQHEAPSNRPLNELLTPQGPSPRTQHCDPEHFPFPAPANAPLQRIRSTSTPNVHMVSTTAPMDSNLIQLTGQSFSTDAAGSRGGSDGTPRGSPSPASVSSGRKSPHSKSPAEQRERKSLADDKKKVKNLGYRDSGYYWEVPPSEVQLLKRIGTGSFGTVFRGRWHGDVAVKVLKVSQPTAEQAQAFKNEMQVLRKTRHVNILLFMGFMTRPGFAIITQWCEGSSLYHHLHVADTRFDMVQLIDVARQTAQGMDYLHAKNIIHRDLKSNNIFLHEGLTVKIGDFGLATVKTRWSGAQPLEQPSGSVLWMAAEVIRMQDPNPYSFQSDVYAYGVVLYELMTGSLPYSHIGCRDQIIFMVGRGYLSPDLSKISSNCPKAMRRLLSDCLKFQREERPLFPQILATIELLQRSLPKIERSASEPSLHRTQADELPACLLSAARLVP

[10] = tested on: Huh-7; experiment: Antiproliferative activity against human Huh-7 cells assessed as cell viability at 10 uM after 48 hrs by MTT assay relative to control; format: functional; conditions: read-out: Activity
[11] = target: T3, Mast/stem cell growth factor receptor Kit (Homo sapiens, UniProt P10721); experiment: Inhibition of CKIT (unknown origin) in presence of [gamma33]-ATP at 10 uM by liquid scintillation counting analysis relative to control
[12] = tested on: Hep 3B2; experiment: Antiproliferative activity against human Hep3B cells assessed as cell viability at 10 uM after 48 hrs by MTT assay relative to control; format: functional; conditions: read-out: Activity
[13] = target: RAF proto-oncogene serine/threonine-protein kinase (Homo sapiens) (UniProt P04049); experiment: Inhibition of C-Raf (unknown origin) in presence of [gamma33]-ATP at 10 uM by liquid scintillation counting analysis relative to control
[14] = tested on: HepG2; experiment: Induction of apoptosis in human HepG2 cells assessed as increase in caspase 3/7 activity at 1.95 uM; format: functional
[15] = target: T1, Platelet-derived growth factor receptor alpha; experiment: Inhibition of PDGFRalpha (unknown origin) in presence of [gamma33]-ATP by liquid scintillation counting analysis
[16] = tested on: HepG2; experiment: Induction of necrosis in human HepG2 cells assessed as increase in LDH release at 1.95 uM; format: functional
[17] = target: T3, Mast/stem cell growth factor receptor Kit; experiment: Inhibition of CKIT (unknown origin) in presence of [gamma33]-ATP by liquid scintillation counting analysis
[18] = target: hERG (KCNH2) (Homo sapiens, UniProt Q12809); experiment: Potency index, ratio of E-4031 IC50 to compound IC50 for inhibition of human ERG; conditions: read-out: Ratio IC50
[19] = target: T4, Vascular endothelial growth factor receptor 2 (Homo sapiens, UniProt P35968); experiment: Inhibition of VEGFR2 autophosphorylation in VEGF-stimulated human HepG2 cells after 2 hrs Western blot analysis; conditions: dose 1-3 µM
[20] = target: T5, Vascular endothelial growth factor receptor 3 (Homo sapiens, UniProt P35916); experiment: Inhibition of Flt4 (unknown origin) in presence of [gamma33]-ATP at 10 uM by liquid scintillation counting analysis relative to control
[21] = target: T4, Vascular endothelial growth factor receptor 2; experiment: Inhibition of KDR (unknown origin) in presence of [gamma33]-ATP by liquid scintillation counting analysis
[22] = target: T5, Vascular endothelial growth factor receptor 3; experiment: Inhibition of Flt4 (unknown origin) in presence of [gamma33]-ATP by liquid scintillation counting analysis

T1 sequence (P16234 whole entry): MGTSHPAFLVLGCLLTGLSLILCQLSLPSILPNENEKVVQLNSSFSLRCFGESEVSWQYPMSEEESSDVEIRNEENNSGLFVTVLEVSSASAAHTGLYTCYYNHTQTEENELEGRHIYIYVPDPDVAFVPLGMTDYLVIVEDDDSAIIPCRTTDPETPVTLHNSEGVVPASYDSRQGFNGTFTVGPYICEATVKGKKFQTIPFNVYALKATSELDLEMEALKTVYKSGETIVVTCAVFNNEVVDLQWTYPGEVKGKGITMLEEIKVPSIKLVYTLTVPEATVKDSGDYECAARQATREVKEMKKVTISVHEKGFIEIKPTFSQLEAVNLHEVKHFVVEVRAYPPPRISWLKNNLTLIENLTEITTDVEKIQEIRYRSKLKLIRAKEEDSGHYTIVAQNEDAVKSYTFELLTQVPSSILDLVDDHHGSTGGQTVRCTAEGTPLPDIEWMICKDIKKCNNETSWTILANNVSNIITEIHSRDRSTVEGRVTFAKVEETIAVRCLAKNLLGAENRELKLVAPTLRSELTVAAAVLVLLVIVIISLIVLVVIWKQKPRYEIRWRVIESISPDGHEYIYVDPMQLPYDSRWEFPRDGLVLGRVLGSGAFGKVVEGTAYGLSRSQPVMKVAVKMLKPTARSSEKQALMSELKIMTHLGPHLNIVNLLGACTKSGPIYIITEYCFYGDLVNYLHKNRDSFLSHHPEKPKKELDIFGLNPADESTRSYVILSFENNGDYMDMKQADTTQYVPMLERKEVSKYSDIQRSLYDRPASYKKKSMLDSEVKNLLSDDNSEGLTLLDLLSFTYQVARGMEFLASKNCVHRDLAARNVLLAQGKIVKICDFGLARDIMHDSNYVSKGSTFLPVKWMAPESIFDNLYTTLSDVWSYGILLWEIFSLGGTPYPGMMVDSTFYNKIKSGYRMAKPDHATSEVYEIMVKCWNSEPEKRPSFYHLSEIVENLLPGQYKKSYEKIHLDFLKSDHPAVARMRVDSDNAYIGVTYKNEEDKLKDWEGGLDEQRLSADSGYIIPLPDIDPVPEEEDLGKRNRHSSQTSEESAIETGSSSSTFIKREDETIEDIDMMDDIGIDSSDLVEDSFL
T3 sequence (P10721 whole entry): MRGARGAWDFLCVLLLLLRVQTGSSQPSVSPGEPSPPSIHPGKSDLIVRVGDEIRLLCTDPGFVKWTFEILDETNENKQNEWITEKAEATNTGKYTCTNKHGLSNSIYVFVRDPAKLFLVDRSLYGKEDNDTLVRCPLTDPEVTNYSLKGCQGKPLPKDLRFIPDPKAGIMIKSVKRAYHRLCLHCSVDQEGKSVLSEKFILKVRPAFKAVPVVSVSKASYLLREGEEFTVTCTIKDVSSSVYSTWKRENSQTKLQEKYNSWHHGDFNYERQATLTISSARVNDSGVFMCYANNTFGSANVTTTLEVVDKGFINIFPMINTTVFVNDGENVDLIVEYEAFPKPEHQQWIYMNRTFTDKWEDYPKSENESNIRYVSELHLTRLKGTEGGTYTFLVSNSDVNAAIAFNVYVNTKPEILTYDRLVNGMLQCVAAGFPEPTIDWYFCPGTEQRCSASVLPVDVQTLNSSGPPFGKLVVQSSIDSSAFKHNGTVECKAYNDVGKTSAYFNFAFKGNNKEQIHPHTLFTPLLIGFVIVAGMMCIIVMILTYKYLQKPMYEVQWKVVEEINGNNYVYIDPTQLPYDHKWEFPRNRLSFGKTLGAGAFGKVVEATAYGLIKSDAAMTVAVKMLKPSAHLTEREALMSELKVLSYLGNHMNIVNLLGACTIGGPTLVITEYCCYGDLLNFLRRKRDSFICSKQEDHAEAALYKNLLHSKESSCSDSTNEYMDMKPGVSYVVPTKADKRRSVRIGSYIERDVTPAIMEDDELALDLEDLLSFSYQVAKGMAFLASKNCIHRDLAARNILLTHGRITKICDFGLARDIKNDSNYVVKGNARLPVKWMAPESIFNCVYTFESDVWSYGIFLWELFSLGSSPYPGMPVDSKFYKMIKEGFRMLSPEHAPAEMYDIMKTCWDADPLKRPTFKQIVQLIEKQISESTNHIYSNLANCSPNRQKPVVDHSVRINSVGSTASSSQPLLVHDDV
T5 sequence (P35916 whole entry): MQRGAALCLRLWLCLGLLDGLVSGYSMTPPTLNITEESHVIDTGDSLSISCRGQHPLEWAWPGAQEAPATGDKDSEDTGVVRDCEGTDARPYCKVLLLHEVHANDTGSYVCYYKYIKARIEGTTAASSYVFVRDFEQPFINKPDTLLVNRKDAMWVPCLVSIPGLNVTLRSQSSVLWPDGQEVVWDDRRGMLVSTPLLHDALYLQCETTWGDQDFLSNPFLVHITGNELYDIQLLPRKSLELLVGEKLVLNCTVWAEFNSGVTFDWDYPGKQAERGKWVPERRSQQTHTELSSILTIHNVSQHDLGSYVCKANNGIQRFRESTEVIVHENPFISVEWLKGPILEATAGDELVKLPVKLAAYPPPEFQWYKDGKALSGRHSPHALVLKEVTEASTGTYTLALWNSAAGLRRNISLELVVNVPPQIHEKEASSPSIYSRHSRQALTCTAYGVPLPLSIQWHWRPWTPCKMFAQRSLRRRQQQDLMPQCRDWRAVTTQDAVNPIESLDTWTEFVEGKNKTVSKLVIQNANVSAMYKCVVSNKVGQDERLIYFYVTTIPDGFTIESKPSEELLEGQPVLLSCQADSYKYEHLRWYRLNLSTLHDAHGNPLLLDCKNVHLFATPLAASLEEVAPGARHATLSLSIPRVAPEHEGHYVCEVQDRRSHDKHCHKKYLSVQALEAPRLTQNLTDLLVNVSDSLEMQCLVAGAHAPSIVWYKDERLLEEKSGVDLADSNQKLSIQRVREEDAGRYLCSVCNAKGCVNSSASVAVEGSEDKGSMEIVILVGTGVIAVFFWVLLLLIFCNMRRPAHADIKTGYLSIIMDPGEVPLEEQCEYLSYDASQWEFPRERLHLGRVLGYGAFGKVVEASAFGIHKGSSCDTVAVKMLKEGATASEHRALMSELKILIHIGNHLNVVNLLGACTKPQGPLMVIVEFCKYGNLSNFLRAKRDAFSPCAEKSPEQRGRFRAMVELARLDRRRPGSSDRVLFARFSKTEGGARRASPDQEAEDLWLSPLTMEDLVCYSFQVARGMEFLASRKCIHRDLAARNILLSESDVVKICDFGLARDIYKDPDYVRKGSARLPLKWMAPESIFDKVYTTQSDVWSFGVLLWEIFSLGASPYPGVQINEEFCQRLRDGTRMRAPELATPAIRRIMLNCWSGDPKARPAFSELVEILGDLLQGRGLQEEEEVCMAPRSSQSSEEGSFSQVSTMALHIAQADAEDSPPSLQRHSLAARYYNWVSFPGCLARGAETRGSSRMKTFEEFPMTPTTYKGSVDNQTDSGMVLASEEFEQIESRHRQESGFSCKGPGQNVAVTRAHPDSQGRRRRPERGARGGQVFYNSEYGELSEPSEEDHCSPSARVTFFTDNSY
Sequence of Platelet-derived growth factor receptor beta (Homo sapiens) (P09619 whole entry): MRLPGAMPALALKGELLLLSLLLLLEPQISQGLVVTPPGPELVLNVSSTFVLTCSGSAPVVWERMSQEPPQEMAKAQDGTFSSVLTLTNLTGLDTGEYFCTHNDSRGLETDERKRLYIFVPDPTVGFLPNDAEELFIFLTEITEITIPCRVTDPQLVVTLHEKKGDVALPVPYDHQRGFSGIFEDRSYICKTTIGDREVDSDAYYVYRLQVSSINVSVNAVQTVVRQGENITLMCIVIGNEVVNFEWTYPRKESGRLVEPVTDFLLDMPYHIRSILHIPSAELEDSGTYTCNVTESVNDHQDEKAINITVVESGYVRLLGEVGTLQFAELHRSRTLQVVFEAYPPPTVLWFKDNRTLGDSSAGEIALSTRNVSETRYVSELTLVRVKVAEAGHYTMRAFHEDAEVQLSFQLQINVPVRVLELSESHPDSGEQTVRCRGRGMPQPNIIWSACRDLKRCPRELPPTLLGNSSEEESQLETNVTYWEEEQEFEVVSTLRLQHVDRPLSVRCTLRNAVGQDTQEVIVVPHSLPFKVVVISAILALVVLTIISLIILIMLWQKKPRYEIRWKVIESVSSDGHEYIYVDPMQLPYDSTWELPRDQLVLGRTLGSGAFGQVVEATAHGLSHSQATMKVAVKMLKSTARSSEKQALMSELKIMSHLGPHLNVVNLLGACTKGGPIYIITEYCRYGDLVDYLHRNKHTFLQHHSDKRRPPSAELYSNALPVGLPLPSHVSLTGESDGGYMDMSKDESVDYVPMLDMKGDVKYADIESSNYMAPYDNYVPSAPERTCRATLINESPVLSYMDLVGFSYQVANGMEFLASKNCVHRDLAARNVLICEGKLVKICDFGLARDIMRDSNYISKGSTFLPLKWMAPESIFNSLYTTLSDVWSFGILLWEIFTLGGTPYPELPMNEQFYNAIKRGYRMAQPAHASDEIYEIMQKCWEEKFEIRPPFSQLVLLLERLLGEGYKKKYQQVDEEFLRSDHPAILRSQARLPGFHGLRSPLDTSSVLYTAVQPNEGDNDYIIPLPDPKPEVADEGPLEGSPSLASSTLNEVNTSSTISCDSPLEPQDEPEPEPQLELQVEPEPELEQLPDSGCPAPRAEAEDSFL
Sequence of Dual specificity mitogen-activated protein kinase kinase 1 (Homo sapiens) (Q02750 whole entry): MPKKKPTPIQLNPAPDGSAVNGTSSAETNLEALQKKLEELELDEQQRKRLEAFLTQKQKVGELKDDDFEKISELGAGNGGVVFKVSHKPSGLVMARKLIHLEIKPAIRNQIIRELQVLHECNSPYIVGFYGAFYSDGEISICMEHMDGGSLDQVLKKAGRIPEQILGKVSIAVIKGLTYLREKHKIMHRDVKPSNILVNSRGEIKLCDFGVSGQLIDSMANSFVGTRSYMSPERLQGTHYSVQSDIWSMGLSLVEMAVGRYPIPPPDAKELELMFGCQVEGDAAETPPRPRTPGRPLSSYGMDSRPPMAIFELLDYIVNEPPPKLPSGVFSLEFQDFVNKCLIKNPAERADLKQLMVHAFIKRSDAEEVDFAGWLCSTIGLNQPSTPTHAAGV

SMILES: CNC(=O)c1cc(Oc2ccc(NC(=O)Nc3ccc(Cl)c(C(F)(F)F)c3)cc2)ccn1 [SORAFENIB]
- IC50 [1]: > 30 µM
- IC50 [2]: 7.55 µM
- IC50 [3]: 8.62 µM
- IC50 [4]: 7.22 µM
- viability at 10 µM [5]: 35%
- inhibition [6]: 99.4%
- inhibition [7]: 37.7%
- inhibition [8]: 99.1%
- inhibition [9]: 99%
- viability at 10 µM [10]: 21%
- inhibition [11]: 65.8%
- viability at 10 µM [12]: 33%

SMILES: CNC(=O)c1cc(-n2ccc3cc(NC(=O)Nc4ccccc4)ccc32)ccn1
- viability at 10 µM [5]: 82%
- viability at 10 µM [10]: 74%
- viability at 10 µM [12]: 66%

SMILES: CNC(=O)c1cc(-n2ccc3cc(NS(=O)(=O)c4cc(C(F)(F)F)cc(C(F)(F)F)c4)ccc32)ccn1
- viability at 10 µM [5]: 96%
- viability at 10 µM [10]: 98%
- viability at 10 µM [12]: 92%

SMILES: CNC(=O)c1cc(-n2ccc3cc(NS(=O)(=O)c4ccc(Cl)c(Cl)c4)ccc32)ccn1
- viability at 10 µM [5]: 97%
- viability at 10 µM [10]: 94%
- viability at 10 µM [12]: 92%

SMILES: CNC(=O)c1cc(-n2ccc3cc(NC(=S)Nc4ccc(Cl)c(C(F)(F)F)c4)ccc32)ccn1
- IC50 [1]: 28.8 µM
- IC50 [2]: 21.5 µM
- IC50 [3]: 13.9 µM
- viability at 10 µM [5]: 60%
- viability at 10 µM [10]: 76%
- viability at 10 µM [12]: 40%

SMILES: CNC(=O)c1cc(-n2ccc3cc(NC(=O)Nc4cccc(C(F)(F)F)c4)ccc32)ccn1
- viability at 10 µM [5]: 76%
- viability at 10 µM [10]: 68%
- viability at 10 µM [12]: 58%

SMILES: CNC(=O)c1cc(-n2ccc3cc(NC(=O)c4ccc(Cl)c(C(F)(F)F)c4)ccc32)ccn1
- viability at 10 µM [5]: 32%
- viability at 10 µM [10]: 42%
- viability at 10 µM [12]: 54%

SMILES: CNC(=O)c1cc(-n2ccc3cc(NS(=O)(=O)c4ccc(Cl)c(C(F)(F)F)c4)ccc32)ccn1
- viability at 10 µM [5]: 97%
- viability at 10 µM [10]: 101%
- viability at 10 µM [12]: 92%

SMILES: CNC(=O)c1cc(-n2ccc3cc(NC(=O)c4ccc(Cl)c(Cl)c4)ccc32)ccn1
- viability at 10 µM [5]: 80%
- viability at 10 µM [10]: 61%
- viability at 10 µM [12]: 79%

SMILES: CNC(=O)c1cc(-n2ccc3cc(NC(=O)c4cc(C(F)(F)F)cc(C(F)(F)F)c4)ccc32)ccn1
- viability at 10 µM [5]: 90%
- viability at 10 µM [10]: 77%
- viability at 10 µM [12]: 111%

SMILES: CNC(=O)c1cc(-n2ccc3cc(NC(=O)c4ccc(F)c(C(F)(F)F)c4)ccc32)ccn1
- viability at 10 µM [5]: 67%
- viability at 10 µM [10]: 40%
- viability at 10 µM [12]: 59%

SMILES: CNC(=O)c1cc(-n2ccc3cc(NC(=O)Nc4cc(C(F)(F)F)cc(C(F)(F)F)c4)ccc32)ccn1
- IC50 [1]: > 30 µM
- IC50 [2]: 5.01 µM
- IC50 [3]: 29.8 µM
- viability at 10 µM [5]: 55%
- viability at 10 µM [10]: 30%
- viability at 10 µM [12]: 73%

SMILES: CNC(=O)c1cc(-n2ccc3cc(NC(=O)c4cccc(C(F)(F)F)c4)ccc32)ccn1
- IC50 [1]: 6.5 µM
- IC50 [4]: 2.67 µM
- viability at 10 µM [5]: 34%
- viability at 10 µM [10]: 77%
- viability at 10 µM [12]: 72%

SMILES: CNC(=O)c1cc(-n2ccc3cc(NC(=S)Nc4ccc(Cl)c(Cl)c4)ccc32)ccn1
- viability at 10 µM [5]: 79%
- viability at 10 µM [10]: 89%
- viability at 10 µM [12]: 86%

SMILES: CNC(=O)c1cc(-n2ccc3cc(NC(=O)Nc4ccc(N5CCOCC5)c(C(F)(F)F)c4)ccc32)ccn1
- IC50 [1]: > 30 µM
- IC50 [2]: 5.6 µM
- IC50 [4]: 9.35 µM
- viability at 10 µM [5]: 47%
- viability at 10 µM [10]: 28%
- viability at 10 µM [12]: 27%

SMILES: CNC(=O)c1cc(-n2ccc3cc(NC(=O)Nc4ccc(N5CCN(C)CC5)c(C(F)(F)F)c4)ccc32)ccn1
- IC50 [1]: > 30 µM
- IC50 [2]: 4.31 µM
- inhibition [13]: -0.5%
- IC50 [3]: 8.01 µM
- IC50 [4]: 1.95 µM
- Activity [14]: 67.45%
- IC50 [15]: > 5 µM
- Activity [16]: 21.5%
- IC50 [17]: 5 µM
- selectivity ratio [18]: 3720
- viability at 10 µM [5]: 27%
- inhibition [19]: Dose-dependent effect
- inhibition [20]: 93.5%
- inhibition [6]: 71.5%
- IC50 [21]: 0.173 µM
- inhibition [7]: 11.5%
- inhibition [8]: 47.5%
- inhibition [9]: -4%
- IC50 [22]: 0.0957 µM
- viability at 10 µM [10]: 20%
- inhibition [11]: 70.5%
- viability at 10 µM [12]: 92%

SMILES: CNC(=O)c1cc(-n2ccc3cc(NC(=O)c4ccc(N5CCOCC5)c(C(F)(F)F)c4)ccc32)ccn1
- IC50 [1]: 8.48 µM
- IC50 [4]: 237 µM
- viability at 10 µM [5]: 72%
- viability at 10 µM [10]: 46%
- viability at 10 µM [12]: 53%

SMILES: CNC(=O)c1cc(-n2ccc3cc(NS(=O)(=O)c4ccccc4)ccc32)ccn1
- viability at 10 µM [5]: 98%
- viability at 10 µM [10]: 105%
- viability at 10 µM [12]: 93%

SMILES: CNC(=O)c1cc(-n2ccc3cc(NC(=S)Nc4cc(C(F)(F)F)cc(C(F)(F)F)c4)ccc32)ccn1
- viability at 10 µM [5]: 53%
- viability at 10 µM [10]: 40%
- viability at 10 µM [12]: 55%

SMILES: CNC(=O)c1cc(-n2ccc3cc(NS(=O)(=O)c4cccc(C(F)(F)F)c4)ccc32)ccn1
- viability at 10 µM [5]: 88%
- viability at 10 µM [10]: 94%
- viability at 10 µM [12]: 84%

SMILES: CNC(=O)c1cc(-n2ccc3cc(NC(=S)Nc4cccc(C(F)(F)F)c4)ccc32)ccn1
- viability at 10 µM [5]: 81%
- viability at 10 µM [10]: 109%
- viability at 10 µM [12]: 99%

SMILES: CNC(=O)c1cc(-n2ccc3cc(NC(=O)Nc4ccc(Cl)c(Cl)c4)ccc32)ccn1
- IC50 [1]: 23.1 µM
- IC50 [2]: 7.96 µM
- IC50 [3]: 7.94 µM
- viability at 10 µM [5]: 57%
- viability at 10 µM [10]: 43%
- viability at 10 µM [12]: 46%

SMILES: CNC(=O)c1cc(-n2ccc3cc(NC(=O)Nc4ccc(F)c(C(F)(F)F)c4)ccc32)ccn1
- viability at 10 µM [5]: 67%
- viability at 10 µM [10]: 65%
- viability at 10 µM [12]: 49%

SMILES: CNC(=O)c1cc(-n2ccc3cc(NC(=O)Nc4ccc(Cl)c(C(F)(F)F)c4)ccc32)ccn1
- IC50 [1]: 26.7 µM
- IC50 [2]: 15.4 µM
- IC50 [3]: 12.3 µM
- viability at 10 µM [5]: 55%
- viability at 10 µM [10]: 40%
- viability at 10 µM [12]: 53%

SMILES: CNC(=O)c1cc(-n2ccc3cc(NC(=O)c4ccccc4)ccc32)ccn1
- viability at 10 µM [5]: 99%
- viability at 10 µM [10]: 105%
- viability at 10 µM [12]: 29%

SMILES: CNC(=O)c1cc(-n2ccc3cc(NC(=S)Nc4ccccc4)ccc32)ccn1
- viability at 10 µM [5]: 100%
- viability at 10 µM [10]: 121%
- viability at 10 µM [12]: 64%
